Assay [1] has as its target T1, Alpha-1A adrenergic receptor (Homo sapiens, UniProt P35348).
T1 sequence (P35348 whole entry): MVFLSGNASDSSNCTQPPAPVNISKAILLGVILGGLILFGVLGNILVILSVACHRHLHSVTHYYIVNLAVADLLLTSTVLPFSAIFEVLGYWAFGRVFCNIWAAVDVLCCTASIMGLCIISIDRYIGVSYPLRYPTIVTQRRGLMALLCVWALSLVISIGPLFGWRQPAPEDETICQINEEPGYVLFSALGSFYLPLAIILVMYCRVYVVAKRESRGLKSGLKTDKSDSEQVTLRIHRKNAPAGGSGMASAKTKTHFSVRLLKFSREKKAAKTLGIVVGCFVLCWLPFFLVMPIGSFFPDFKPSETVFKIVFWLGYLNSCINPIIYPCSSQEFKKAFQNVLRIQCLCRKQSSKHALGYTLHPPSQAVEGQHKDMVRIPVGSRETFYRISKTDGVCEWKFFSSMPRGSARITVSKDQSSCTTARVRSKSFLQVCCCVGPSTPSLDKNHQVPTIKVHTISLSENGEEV
In kind it is functional, cell-based.

Assay [2] addresses T2, Muscarinic acetylcholine receptor M2 (Homo sapiens, UniProt P08172).
T2 sequence (P08172 whole entry): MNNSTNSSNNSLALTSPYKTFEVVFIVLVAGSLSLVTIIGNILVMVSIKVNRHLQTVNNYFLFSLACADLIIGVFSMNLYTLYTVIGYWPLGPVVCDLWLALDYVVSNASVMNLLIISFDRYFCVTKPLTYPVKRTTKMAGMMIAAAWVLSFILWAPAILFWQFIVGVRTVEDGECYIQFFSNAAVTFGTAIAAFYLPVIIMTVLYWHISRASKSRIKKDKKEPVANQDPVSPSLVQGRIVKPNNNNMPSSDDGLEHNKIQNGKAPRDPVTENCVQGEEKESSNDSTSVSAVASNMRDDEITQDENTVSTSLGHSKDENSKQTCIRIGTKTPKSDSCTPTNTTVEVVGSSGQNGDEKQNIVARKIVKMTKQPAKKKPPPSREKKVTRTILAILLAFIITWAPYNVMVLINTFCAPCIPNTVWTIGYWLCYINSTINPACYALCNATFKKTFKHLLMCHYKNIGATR

In the next assay the target is D(1A) dopamine receptor (Homo sapiens, UniProt P21728).
Sequence of D(1A) dopamine receptor (P21728 whole entry): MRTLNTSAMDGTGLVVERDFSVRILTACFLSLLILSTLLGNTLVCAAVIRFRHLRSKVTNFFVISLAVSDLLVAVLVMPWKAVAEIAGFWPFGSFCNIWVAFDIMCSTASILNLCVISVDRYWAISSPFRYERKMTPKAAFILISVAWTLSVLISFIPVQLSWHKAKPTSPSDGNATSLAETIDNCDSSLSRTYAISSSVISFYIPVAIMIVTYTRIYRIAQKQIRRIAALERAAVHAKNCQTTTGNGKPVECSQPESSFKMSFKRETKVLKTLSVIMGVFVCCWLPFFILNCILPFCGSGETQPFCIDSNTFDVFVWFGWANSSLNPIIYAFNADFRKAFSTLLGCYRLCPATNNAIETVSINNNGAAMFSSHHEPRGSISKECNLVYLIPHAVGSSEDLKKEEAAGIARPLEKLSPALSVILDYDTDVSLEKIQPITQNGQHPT
Assay [3] has as its target T3, Histamine H3 receptor (Homo sapiens, UniProt Q9Y5N1).
Assay [4] addresses T4, 5-hydroxytryptamine receptor 1A (Homo sapiens, UniProt P08908).
T4 sequence (P08908 whole entry): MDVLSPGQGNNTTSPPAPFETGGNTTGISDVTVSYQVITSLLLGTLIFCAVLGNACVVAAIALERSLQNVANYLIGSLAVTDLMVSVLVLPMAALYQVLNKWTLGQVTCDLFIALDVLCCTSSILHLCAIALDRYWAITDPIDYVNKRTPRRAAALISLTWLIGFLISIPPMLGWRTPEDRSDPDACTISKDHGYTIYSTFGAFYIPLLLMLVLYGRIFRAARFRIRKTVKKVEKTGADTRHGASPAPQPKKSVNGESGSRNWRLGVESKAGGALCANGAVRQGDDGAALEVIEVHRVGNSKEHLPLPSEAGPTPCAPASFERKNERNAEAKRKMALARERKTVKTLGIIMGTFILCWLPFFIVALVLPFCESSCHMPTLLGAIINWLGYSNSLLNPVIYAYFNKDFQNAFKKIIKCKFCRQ

The target in assay [5] is 5-hydroxytryptamine receptor 2B (Homo sapiens, UniProt P41595). Format: functional, cell-based.
Sequence of 5-hydroxytryptamine receptor 2B (P41595 whole entry): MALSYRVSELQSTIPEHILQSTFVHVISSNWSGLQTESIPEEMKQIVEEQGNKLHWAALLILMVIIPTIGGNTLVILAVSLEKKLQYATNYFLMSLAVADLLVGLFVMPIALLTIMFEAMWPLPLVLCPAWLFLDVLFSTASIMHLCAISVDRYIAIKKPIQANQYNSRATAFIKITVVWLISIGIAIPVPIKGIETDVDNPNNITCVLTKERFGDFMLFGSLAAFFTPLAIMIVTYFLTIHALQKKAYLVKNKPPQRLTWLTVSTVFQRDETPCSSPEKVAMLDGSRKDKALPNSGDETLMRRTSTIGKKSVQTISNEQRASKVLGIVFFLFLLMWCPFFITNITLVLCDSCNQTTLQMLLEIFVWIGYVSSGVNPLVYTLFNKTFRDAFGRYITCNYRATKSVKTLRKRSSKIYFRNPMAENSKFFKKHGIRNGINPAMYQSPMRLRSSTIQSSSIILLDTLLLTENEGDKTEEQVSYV
The target of assay [6] is T5, Amine oxidase [flavin-containing] A (Homo sapiens, UniProt P21397).
T5 sequence (P21397 whole entry): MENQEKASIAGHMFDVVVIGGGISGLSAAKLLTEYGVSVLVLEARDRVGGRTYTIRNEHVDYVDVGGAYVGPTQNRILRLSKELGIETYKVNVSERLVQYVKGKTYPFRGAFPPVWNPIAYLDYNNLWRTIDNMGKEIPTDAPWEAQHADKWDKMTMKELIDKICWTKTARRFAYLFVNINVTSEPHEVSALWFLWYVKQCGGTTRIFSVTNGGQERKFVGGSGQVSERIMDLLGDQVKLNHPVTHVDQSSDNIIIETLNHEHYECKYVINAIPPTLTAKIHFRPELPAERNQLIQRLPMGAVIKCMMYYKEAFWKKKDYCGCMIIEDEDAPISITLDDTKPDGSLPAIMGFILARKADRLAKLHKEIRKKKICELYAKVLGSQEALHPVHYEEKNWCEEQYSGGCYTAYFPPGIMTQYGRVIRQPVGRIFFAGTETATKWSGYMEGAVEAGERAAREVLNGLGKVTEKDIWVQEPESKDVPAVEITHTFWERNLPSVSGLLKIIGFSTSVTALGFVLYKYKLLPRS
In kind it is functional.

Assay [7] deals with T6, Prostaglandin G/H synthase 1 (Homo sapiens, UniProt P23219). Format: functional.
T6 sequence (P23219 whole entry): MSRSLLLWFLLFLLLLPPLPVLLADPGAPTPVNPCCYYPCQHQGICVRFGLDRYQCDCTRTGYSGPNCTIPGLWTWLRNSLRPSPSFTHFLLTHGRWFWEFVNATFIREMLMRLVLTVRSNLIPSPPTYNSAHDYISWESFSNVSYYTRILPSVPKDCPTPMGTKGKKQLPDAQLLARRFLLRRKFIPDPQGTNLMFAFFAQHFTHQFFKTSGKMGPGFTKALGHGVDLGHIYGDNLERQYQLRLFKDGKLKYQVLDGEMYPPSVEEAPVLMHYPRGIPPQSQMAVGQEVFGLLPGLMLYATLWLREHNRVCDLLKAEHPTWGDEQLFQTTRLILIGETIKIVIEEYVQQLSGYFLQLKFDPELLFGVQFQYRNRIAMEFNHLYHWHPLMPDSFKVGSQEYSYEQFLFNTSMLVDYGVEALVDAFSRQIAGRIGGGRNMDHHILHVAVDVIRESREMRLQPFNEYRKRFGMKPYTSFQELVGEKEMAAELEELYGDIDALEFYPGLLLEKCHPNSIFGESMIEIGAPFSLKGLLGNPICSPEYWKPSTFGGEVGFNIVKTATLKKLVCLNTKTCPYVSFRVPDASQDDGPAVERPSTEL
In assay [8] the target is T6, Prostaglandin G/H synthase 1. In kind it is functional. This is another data set of the same source.
The target in a further assay is Cannabinoid receptor 1 (Homo sapiens, UniProt P21554). In kind it is functional, cell-based.
Sequence of Cannabinoid receptor 1 (P21554 whole entry): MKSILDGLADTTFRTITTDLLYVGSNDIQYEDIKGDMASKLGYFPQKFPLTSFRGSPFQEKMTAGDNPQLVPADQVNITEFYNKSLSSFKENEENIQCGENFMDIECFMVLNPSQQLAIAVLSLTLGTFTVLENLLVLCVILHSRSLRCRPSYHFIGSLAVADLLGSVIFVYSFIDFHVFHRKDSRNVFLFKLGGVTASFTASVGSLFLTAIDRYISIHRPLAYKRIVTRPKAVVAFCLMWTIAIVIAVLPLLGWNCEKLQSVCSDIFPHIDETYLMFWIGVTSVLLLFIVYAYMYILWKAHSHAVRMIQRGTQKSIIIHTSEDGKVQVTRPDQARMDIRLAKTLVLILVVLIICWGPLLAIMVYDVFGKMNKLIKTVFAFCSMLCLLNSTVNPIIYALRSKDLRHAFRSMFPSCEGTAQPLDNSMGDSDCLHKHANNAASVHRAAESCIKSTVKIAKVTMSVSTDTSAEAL
Assay [9] deals with T7, Neuropeptide Y receptor type 1 (Homo sapiens, UniProt P25929).
T7 sequence (P25929 whole entry): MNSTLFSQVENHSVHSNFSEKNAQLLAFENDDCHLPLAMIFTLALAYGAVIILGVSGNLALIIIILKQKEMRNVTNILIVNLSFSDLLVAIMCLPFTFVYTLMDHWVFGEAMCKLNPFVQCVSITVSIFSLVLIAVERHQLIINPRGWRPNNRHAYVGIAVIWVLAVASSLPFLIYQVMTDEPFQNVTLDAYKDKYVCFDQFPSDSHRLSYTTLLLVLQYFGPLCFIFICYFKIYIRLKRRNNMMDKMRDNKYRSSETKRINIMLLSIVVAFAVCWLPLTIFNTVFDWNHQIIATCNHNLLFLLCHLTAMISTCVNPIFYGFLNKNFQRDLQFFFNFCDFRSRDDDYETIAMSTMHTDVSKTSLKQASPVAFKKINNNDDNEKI

In assay [10] the target is T3, Histamine H3 receptor. The source holds these as a separate data set.
Assay [11] has as its target Beta-2 adrenergic receptor (Homo sapiens, UniProt P07550).
Assay [12] concerns the target Voltage-dependent L-type calcium channel subunit alpha-1C (Rattus norvegicus, UniProt P22002). Format: functional.

Where only a bound is given, the exact number is not on record here.
Further: assay procedure not described here.

T3 sequence (Q9Y5N1 whole entry): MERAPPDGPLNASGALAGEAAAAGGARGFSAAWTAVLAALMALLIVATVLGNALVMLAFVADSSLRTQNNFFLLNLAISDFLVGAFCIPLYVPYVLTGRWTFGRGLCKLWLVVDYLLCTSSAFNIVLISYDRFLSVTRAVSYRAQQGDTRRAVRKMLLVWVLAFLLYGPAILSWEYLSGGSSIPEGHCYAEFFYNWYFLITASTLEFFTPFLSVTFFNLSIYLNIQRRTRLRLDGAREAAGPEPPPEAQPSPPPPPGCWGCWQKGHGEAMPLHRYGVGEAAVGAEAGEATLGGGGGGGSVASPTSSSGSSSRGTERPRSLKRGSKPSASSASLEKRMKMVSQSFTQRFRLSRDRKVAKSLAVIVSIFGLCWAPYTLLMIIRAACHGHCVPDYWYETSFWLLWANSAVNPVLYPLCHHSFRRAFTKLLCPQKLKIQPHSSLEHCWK
Sequence of Beta-2 adrenergic receptor (P07550 whole entry): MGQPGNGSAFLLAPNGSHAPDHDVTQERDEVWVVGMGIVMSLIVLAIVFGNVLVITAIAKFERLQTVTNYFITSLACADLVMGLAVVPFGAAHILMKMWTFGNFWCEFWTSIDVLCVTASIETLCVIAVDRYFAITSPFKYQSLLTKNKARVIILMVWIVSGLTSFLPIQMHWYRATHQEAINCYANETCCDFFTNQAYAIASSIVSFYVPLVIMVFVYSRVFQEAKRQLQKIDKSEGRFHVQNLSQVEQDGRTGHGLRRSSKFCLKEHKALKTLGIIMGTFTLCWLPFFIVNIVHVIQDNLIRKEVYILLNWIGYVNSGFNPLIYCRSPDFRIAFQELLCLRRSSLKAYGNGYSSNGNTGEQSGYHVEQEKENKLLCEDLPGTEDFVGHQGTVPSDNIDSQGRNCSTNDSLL
Sequence of Voltage-dependent L-type calcium channel subunit alpha-1C (P22002 whole entry): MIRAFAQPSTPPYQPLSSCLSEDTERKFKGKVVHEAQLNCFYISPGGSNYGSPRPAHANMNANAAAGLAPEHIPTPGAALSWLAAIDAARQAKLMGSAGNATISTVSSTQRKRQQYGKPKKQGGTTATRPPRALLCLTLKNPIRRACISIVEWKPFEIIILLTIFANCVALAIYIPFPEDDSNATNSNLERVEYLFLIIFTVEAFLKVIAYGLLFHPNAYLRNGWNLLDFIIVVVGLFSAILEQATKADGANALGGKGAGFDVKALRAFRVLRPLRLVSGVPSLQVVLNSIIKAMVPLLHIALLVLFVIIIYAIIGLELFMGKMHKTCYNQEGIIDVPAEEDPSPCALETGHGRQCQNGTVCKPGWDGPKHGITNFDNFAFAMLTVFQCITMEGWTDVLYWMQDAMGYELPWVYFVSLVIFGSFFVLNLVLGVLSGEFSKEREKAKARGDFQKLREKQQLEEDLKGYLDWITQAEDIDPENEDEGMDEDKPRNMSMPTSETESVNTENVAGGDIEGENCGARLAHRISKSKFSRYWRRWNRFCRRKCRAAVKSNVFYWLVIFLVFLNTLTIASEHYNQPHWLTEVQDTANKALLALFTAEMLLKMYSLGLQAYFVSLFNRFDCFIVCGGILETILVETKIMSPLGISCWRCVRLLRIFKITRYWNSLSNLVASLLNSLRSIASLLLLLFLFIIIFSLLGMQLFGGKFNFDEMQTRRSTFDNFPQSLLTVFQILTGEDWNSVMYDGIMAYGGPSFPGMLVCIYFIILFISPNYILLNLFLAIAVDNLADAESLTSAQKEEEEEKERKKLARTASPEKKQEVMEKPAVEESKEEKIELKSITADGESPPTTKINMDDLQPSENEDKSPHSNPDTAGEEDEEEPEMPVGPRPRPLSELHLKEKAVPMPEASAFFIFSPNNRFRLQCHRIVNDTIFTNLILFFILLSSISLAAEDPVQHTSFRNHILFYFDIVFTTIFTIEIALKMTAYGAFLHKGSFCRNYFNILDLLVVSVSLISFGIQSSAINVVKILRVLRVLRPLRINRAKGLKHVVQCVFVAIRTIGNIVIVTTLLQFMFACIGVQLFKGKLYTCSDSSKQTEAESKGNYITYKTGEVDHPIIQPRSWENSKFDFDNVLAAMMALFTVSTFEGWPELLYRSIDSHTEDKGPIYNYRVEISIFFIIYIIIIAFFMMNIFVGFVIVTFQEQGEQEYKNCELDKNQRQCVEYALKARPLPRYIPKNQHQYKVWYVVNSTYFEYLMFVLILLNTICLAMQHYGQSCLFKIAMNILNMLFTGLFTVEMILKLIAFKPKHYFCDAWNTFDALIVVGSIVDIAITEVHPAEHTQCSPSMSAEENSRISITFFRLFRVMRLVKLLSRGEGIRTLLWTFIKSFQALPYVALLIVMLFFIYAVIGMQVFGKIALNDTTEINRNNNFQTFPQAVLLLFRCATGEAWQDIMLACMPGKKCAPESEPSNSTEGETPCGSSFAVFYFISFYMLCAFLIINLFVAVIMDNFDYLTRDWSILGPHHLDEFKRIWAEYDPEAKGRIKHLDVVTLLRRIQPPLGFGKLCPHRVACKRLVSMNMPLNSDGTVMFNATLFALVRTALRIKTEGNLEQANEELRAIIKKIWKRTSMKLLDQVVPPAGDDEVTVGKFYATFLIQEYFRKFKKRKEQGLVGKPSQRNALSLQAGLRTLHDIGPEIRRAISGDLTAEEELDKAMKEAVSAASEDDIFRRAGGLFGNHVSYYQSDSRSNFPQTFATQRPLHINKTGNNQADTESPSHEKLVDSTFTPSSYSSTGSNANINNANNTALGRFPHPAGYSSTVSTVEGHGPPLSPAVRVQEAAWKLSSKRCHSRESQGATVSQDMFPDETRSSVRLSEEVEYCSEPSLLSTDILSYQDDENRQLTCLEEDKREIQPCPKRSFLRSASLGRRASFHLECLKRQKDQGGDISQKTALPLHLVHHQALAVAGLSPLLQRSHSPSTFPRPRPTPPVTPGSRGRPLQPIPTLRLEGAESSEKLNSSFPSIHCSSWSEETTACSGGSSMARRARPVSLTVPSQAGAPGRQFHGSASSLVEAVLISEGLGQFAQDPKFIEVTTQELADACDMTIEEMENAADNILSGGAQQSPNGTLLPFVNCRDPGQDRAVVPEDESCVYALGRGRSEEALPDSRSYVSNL

`CN(C)CC(c1ccc(O)cc1)C1(O)CCCCC1` (configuration not stated) [DESVENLAFAXINE]: the AC50 (in [1]; in assay [2]; on D(1A) dopamine receptor; at Histamine H3 receptor [3]; in assay [4]; in assay [5]) was greater than 30 µM throughout. Besides, the half-maximal activity concentration (AC50) in assay [6], in [7] and in assay [8] was greater than 30 µM throughout.

On to `CC(=O)NCCCS(=O)(=O)O` [ACAMPROSATE], for which the AC50 (on Cannabinoid receptor 1; in [9]; on Histamine H3 receptor [10]) was greater than 30 µM throughout.

Consider `C[N+](C)(C)CCO` [CHOLINE], for which the concentration at half-maximal activity (AC50) (in [1]; in [2]; at D(1A) dopamine receptor; on Histamine H3 receptor [3]; in assay [4]; in [5]) was greater than 30 µM each time. Besides, the half-maximal activity concentration (AC50) in assay [6], in assay [7] and in assay [8] was greater than 30 µM in each case.

`C[C@]12CC[C@@H]3c4ccc(O)cc4CC[C@H]3[C@@H]1C[C@@H](O)[C@@H]2O` [ESTRIOL]: the AC50 (in [1]; in assay [2]; at D(1A) dopamine receptor; on Histamine H3 receptor [3]; in [4]; in assay [5]) was greater than 30 µM throughout. For the same compound, the AC50 (commonly the concentration at which the activity in the assay is half-maximal) was greater than 30 µM in assay [6], 12 µM in assay [7] and greater than 30 µM in assay [8].

In the case of `Cc1nc([N+](=O)[O-])cn1-c1ccc([N+](=O)[O-])cc1` [NITREFAZOLE], the AC50 (at Cannabinoid receptor 1; in assay [9]; at Histamine H3 receptor [10]) was greater than 30 µM each time.

As to `CC(C)(S)[C@@H](N)C(=O)O` [PENICILLAMINE], the AC50 (in [1]; in assay [2]; at D(1A) dopamine receptor; on Histamine H3 receptor [3]; in [4]; in assay [5]) was greater than 30 µM each time. The same compound had an AC50 in assay [6] greater than 30 µM.

Regarding `Nc1nc(NC2CC2)c2ncn([C@H]3C=C[C@@H](CO)C3)c2n1` [ABACAVIR], the half-maximal activity concentration (AC50) (on Cannabinoid receptor 1; in [9]; on Histamine H3 receptor [10]) was greater than 30 µM throughout.

As to `CNC1Cc2ccccc2N(C)c2ccccc21` (configuration not stated) [METAPRAMINE], the AC50 on Cannabinoid receptor 1 and on Histamine H3 receptor [10] was greater than 30 µM in each case.

As to `C1CCC(C(CC2CCCCN2)C2CCCCC2)CC1` (configuration not stated) [PERHEXILINE], the half-maximal activity concentration (AC50) on Cannabinoid receptor 1 and at Histamine H3 receptor [10] was greater than 30 µM in each case.

In the case of `CN(C)CCC=C1c2ccccc2C(C)(C)c2ccccc21`, the AC50 on Cannabinoid receptor 1 is greater than 30 µM; at Histamine H3 receptor [10] it was 25 µM.

In the case of `COCc1c(C(C)C)nc(C(C)C)c(/C=C/[C@@H](O)C[C@@H](O)CC(=O)O)c1-c1ccc(F)cc1` [CERIVASTATIN], the AC50 in [1] is 25.2 µM; in assay [2], greater than 30 µM; at D(1A) dopamine receptor, greater than 30 µM; at Histamine H3 receptor [3], greater than 30 µM; in assay [4], greater than 30 µM; in assay [5], greater than 30 µM. For the same compound, the AC50 in assay [6], in assay [7] and in assay [8] was greater than 30 µM each time.

As for `COc1cc(NC(C)CCCN)c2ncccc2c1` (configuration not stated) [PRIMAQUINE], the AC50 in assay [9] was greater than 30 µM; in [7] it was 3.95 µM.

With `COc1ccc(CC(C)(C)NC[C@H](O)c2cc(O)cc3c2OCC(=O)N3)cc1` [OLODATEROL], the half-maximal activity concentration (AC50) at Cannabinoid receptor 1 and on Histamine H3 receptor [10] was greater than 30 µM throughout.

Take `CCCCN1C[C@H](O)[C@@H](O)[C@H](O)[C@H]1CO`: the concentration at half-maximal activity (AC50) (in assay [11]; in [12]; in assay [9]; on Histamine H3 receptor [10]) was greater than 30 µM in each case.

As for `CC(=O)Nc1ccc(O)cc1` [ACETAMINOPHEN], the AC50 (in assay [1]; in assay [2]; at Cannabinoid receptor 1; on Histamine H3 receptor [3]; in assay [4]; in assay [5]) was greater than 30 µM throughout. Besides, the AC50 in assay [6] was greater than 10 µM; in assay [7] it was greater than 30 µM; at Histamine H3 receptor [10], greater than 30 µM.

For the compound `C[C@H]1CNCCc2ccc(Cl)cc21` [LORCASERIN], the half-maximal activity concentration (AC50) on Cannabinoid receptor 1 was 2.6 µM; at Histamine H3 receptor [10], greater than 30 µM.

With `COc1cc2nc(N(C)CCCNC(=O)C3CCCO3)nc(N)c2cc1OC` (configuration not stated) [ALFUZOSIN], the AC50 (in assay [11]; in assay [12]; on Cannabinoid receptor 1; in assay [9]; on Histamine H3 receptor [10]) was greater than 30 µM in each case.

For `N[C@@H]1[C@H]2CN(c3nc4c(cc3F)c(=O)c(C(=O)O)cn4-c3ccc(F)cc3F)C[C@@H]12` [TROVAFLOXACIN], the AC50 at Cannabinoid receptor 1 and at Histamine H3 receptor [10] was greater than 30 µM in each case.

In the case of `C=C[C@H]1C[N@@]2CC[C@H]1C[C@H]2[C@H](O)c1ccnc2ccc(OC)cc12` [QUININE], the concentration at half-maximal activity (AC50) (in assay [2]; at D(1A) dopamine receptor; at Histamine H3 receptor [3]; in assay [4]; in [5]; in assay [6]) was greater than 30 µM each time. Further, the results for the concentration at half-maximal activity (AC50) in [7] and in [8] were greater than 10 µM and greater than 30 µM, respectively.

With `O=C(O[C@H]1C[C@H]2CC[C@@H](C1)[N+]21CCCC1)C(O)(c1ccccc1)c1ccccc1` [TROSPIUM], the AC50 (in assay [11]; in assay [12]; in [9]; at Histamine H3 receptor [10]) was greater than 30 µM throughout.

On to `CCC1=C(C)CN(C(=O)NCCc2ccc(S(=O)(=O)NC(=O)N[C@H]3CC[C@H](C)CC3)cc2)C1=O` [GLIMEPIRIDE], for which the AC50 (in assay [1]; in assay [2]; at D(1A) dopamine receptor; on Histamine H3 receptor [3]; in [4]; in assay [5]) was greater than 30 µM each time. For the same compound, the AC50 in [6], in assay [7] and in assay [8] was greater than 30 µM each time.

In the case of `c1cnc(N2CCN(Cc3ccc4c(c3)OCO4)CC2)nc1` [PIRIBEDIL], the half-maximal activity concentration (AC50) at Cannabinoid receptor 1 and on Histamine H3 receptor [10] was greater than 30 µM throughout.

These data come from ChEMBL document CHEMBL5291721, “A preclinical secondary pharmacology resource illuminates target-adverse drug reaction associations of marketed drugs” (Nat Commun, 2023).
